Values of other authors in article PMC8198792, “Prediction of Anticancer Peptides with High Efficacy and Low Toxicity by Hybrid Model Based on 3D Structure of Peptides” (International Journal of Molecular Sciences, 2021).
Where two headings read alike, the source gives them in different places.

System: cancer cell lines
Set-up: method as in 6 sources, ref CancerPPD [45] and SATPdb ||| ref CancerPPD/SATPdb ||| ref CancerPPD, SATPdb, Swissprot (PDB) ||| ref CancerPPD/SATPdb/Swissprot(PDB) ||| ref CancerPPD / SATPdb ||| ...
Conditions: cited from earlier work
Text: Supplement ijms-22-05630-s001.zip/ACPs(seguence).xlsx, sheet "D1" | column: Activity || Supplement ijms-22-05630-s001.zip/ACPs(seguence).xlsx, sheet "D2" | column: Activity || Supplement ijms-22-05630-s001.zip/ACPs(seguence).xlsx, sheet "D3" | column: Activity || (+ 2 further places)

[1] = ACPs dataset D3 (supplement sheet "D3"), 1 = ACP, 0 = non-ACP, ref CancerPPD [45] and SATPdb
[2] = ACPs dataset D4 (sheet "D4"), label 1 = ACP (CancerPPD ID), 0 = non-ACP (non-anticancer AMP, SATPdb ID), ref CancerPPD [45] and SATPdb
[3] = ACPs dataset D5 (sheet "D5"), label 1 = ACP (positive set), 0 = non-ACP (negative set), ref CancerPPD [45] and SATPdb
[4] = ACPs dataset D1, 1 = ACP (positive), 0 = non-ACP (negative), label taken from databases, ref CancerPPD [45] and SATPdb
[5] = ACPs dataset D4 (sheet "D4"), label 1 = ACP, experimentally validated ACPs, ref CancerPPD [45] and SATPdb
[6] = ACPs dataset D5 (sheet "D5"), label 1 = ACP (positive set), sequences with CancerPPD/SATPdb ID, ref CancerPPD, SATPdb
[7] = ACPs dataset sheet D2, 1 = ACP (CancerPPD/SATPdb ID), 0 = non-ACP (Swissprot/PDB ID), ref CancerPPD, SATPdb, Swissprot (PDB)
[8] = ACPs dataset D1, label 1 = ACP, 0 = non-ACP (non-anticancer AMPs from SATPdb), ref CancerPPD/SATPdb
[9] = ACPs dataset D4 (sheet "D4"), label 1 = ACP, 0 = non-ACP, ref CancerPPD / SATPdb
[10] = ACPs dataset D2 (supplement ACPs(seguence).xlsx, sheet D2), dataset label 1/0 (ACP / non-ACP), entries identified by Swissprot(PDB ID), ref CancerPPD/SATPdb/Swissprot(PDB)
[11] = ACPs dataset D5, sheet "D5", label 1 = ACP, 0 = non-ACP, ref CancerPPD [45] and SATPdb

| Substance | Activity [2] | Activity [4] | Activity [5] | Activity [6] | Activity [7] | further results |
| --- | --- | --- | --- | --- | --- | --- |
| KWKSFLKTFKSLKkTVLHTLLKAISS [compound 3760] | 1 |  |  |  |  | Activity [1]: 1; Activity [3]: 1 |
| GIFSKFGGKAIKNLFIKGAKNIGKEVGMDVIRTGIDVAGCKIKGEC [satpdb10976] | 0 | 0 |  |  |  |  |
| GLFAVIKKVAAVIKKL [compound 4120] | 1 |  |  |  |  | Activity [1]: 1; Activity [3]: 1 |
| MLQNSAVLLLLVISASA [satpdb10067] |  | 1 | 1 | 1 | 1 |  |
| DLRFWNPREKLPLPTLPPFNPKPIYIDMGNRY [satpdb12945] |  |  |  |  |  | Activity [8]: 0; Activity [9]: 0 |
| GIFLKVLGVGKKVLCGVSGLC [satpdb12520] | 0 |  |  |  |  | Activity [8]: 0 |
| FHVPDDRPCINPGRCPLVPDATCTFVCKAADNDFGYECQHVWTFEGQRVGCYA [5MRV X-ray 1.85,C,1-53] |  |  |  |  |  | Activity [10]: 0; Activity [11]: 0 |
| FFGWLIKGAIHAGKAIHGLIHRRRH [compound 4436] |  | 1 | 1 | 1 | 1 |  |
| GIPCAESCVWIPCTVTALLGCSCSNKVCYN [satpdb12637] | 0 |  |  |  |  | Activity [8]: 0 |
| GFLSILKKVLP [satpdb11215] | 0 | 0 |  |  |  |  |
| SKWSECSRTCGGGVKFQER [satpdb16830] |  | 1 | 1 | 1 | 1 |  |
| GLFDVIKKVASVIKKL [compound 4084] | 1 |  |  |  |  | Activity [1]: 1; Activity [3]: 1 |
| GILLDKLKNFAKTAGKGVLQSLLNTASCKLSGQC [satpdb12360] | 0 |  |  |  |  | Activity [8]: 0 |
| FKLFKKIPKFLHLAKKF [compound 1124] |  |  | 1 | 1 |  | Activity [1]: 1 |
| DFKLFAVYIKYR [satpdb16901] |  | 1 | 1 | 1 | 1 |  |
| ITIPPIVKNTLKKFIKGAVSALMS [satpdb11263] | 0 | 0 |  |  |  |  |
| FLPAIAGMAAKFLPKIFCAISKKC [satpdb12699] |  |  |  |  |  | Activity [8]: 0; Activity [9]: 0 |
| YTMNPRKLFDY [satpdb15978] |  | 1 | 1 | 1 | 1 |  |
| RGDLLRHVVKILEKYL [compound 1672] |  | 1 | 1 | 1 | 1 |  |
| GKWLSLLKHILK [compound 3661] | 1 |  |  |  |  | Activity [1]: 1; Activity [3]: 1 |
| IDWKKLLDAAKQIL [compound 4438] |  | 1 | 1 | 1 | 1 |  |
| MVEPLLDGLVLGLVFATLGGLFYAAYQQYKRPNELGG [4I7Z X-ray 2.80 G 1-37] |  |  |  |  |  | Activity [10]: 0; Activity [3]: 0 |
| PIEVNDDCMACEACVEICPDVFEMNEEGDKAVVINPDSDLDCVEEAIDSCPAEAIVRS [1F2G;1FXD X-ray 1.70 A 1-58] |  |  |  |  |  | Activity [10]: 0; Activity [11]: 0 |
| GRRKRKWLRRIGKGVKIIGGAALDHL [compound 4351] | 1 |  |  |  |  | Activity [1]: 1; Activity [3]: 1 |
| HFLLTLVNLAKkIL [satpdb14808] |  |  |  |  |  | Activity (ACPs dataset D3 (sheet "D3"), label 1 = ACP, 0 = non-ACP, ref CancerPPD/SATPdb): 0; Activity [9]: 0; Activity [11]: 0 |
| LGGIVSAVKKIVDFLG [compound 1903] | 1 |  |  |  |  | Activity [1]: 1; Activity [3]: 1 |
| LTAEHYAAQATS [compound 4580] |  | 1 | 1 | 1 | 1 |  |
| KIKSCYYLPCFVTS [satpdb14785] |  | 1 | 1 | 1 | 1 |  |
| ITMQGIQGQKIRMIMF [satpdb23309] |  | 1 | 1 | 1 | 1 |  |
